In assay [1] the target is T1, 5-HT2B receptor (Homo sapiens, UniProt P41595).
T1 construct: host or cells: CHO-K1
The experiment in a line: 5-HT2B receptor binding, 3H-LSD ligand displacement assay. The following applies: for inhibition at 0.1 µM: 0.1 uM compound; for inhibition at 1 µM: 1 uM compound; for inhibition at 0.001 µM: 0.001 uM compound; for inhibition at 0.01 µM: 0.01 uM compound. As to the method:
5-HT2B receptor binding (performed at Eurofins Panlabs Taiwan, Ltd.) to human receptor protein expressed in CHO-K1 cells was determined in a ligand displacement assay using ^3H-lysergic acid diethylamide (LSD) as radioligand and ketanserine as a standard reference compound. Data is presented as % displacement of radioligand at indicated compound concentrations, see Table 1 and Table 2.

The target in assay [2] is T1, 5-HT2B receptor. The experiment in a line: 5-HT2B receptor antagonism, inhibition of 5-HT stimulated IP-1 accumulation (HTRF) in CHO-K1 cells. The format is cell-based. The following applies: % inhibition of 5-HT (5 nM) induced effect. Here is the method: (§1) 5-HT2B receptor antagonism (performed at Eurofins Panlabs Taiwan, Ltd.) was determined in CHO-K1 cells expressing human receptor protein as inhibition of 5-HT (5 nM) stimulated IP-1 accumulation measured by HTRF quantitation. SB 206553 was used as a standard reference compound. The antagonistic response is expressed as % inhibition of the 5-HT induced effect.
On the technique in general: Time-resolved FRET reads energy transfer from a long-lived donor to a nearby acceptor.

The target in assay [3] is T1, 5-HT2B receptor. The assay can be described thus: 5-HT2B receptor agonism, IP-1 accumulation in CHO-K1 cells without prior 5-HT stimulation. The format is cell-based. The following applies: % of IP-1 accumulation induced by 5-HT (1 uM). Here is the method:
as §1
5-HT2B receptor agonism (performed at Eurofins Panlabs Taiwan, Ltd.) was determined in the same model as described above in Ex. 117. without prior stimulation with 5-HT. The agonistic response is expressed as % of the IP-1 accumulation induced by 5-HT (1 uM) stimulation.

Each structure is given as a SMILES string.

T1 sequence (P41595 whole entry): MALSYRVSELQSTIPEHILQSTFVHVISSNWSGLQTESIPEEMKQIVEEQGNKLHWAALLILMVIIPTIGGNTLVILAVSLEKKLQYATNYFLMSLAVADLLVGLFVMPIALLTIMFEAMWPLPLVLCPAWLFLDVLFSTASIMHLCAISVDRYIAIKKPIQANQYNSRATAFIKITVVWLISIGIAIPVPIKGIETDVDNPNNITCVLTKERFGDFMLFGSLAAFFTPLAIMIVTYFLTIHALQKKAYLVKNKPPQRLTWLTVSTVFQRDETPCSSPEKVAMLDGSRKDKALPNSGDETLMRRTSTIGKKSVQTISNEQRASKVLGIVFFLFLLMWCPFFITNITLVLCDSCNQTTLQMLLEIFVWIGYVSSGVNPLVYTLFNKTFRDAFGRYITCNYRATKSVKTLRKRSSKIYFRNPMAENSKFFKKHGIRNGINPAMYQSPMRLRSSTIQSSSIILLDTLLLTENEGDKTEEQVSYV

With `N=C(N)N1CCC(c2cccc3ccccc23)=N1` [Example 9, 3-(Naphthalen-1-yl)-4,5-dihydro-1H-pyrazole-1-carboximidamide], in assay [1], the inhibition at 0.1 µM stood at 81% and the inhibition at 1 µM was determined as 99%. Also, in assay [2], the inhibition at 0.001 µM came to 6%, the inhibition at 0.01 µM is 20%, the inhibition at 0.1 µM is 76% and the inhibition at 1 µM was 103%. Further, in assay [2], the inhibition at 10 µM turned out to be 116%. In assay [3], the activation at 0.001 µM was -3%, the activation at 0.01 µM is -8%, the activation at 0.1 µM is -8% and the activation at 1 µM is -13%. Further, the activation at 10 µM in assay [3] is -5%.
As for `C[C@@H]1CN(C(=N)NCc2ccccc2)N=C1c1cccc(Cl)c1O` (single isomer, unassigned) [Example 76, (R)*—N-Benzyl-3-(3-chloro-2-hydroxyphenyl)-4-methyl-4,5-dihydro-1H-pyrazole-1-carboximidamide], in assay [1], the inhibition at 0.001 µM came out at 91%, the inhibition at 0.01 µM stood at 101% and the inhibition at 0.1 µM came out at 103%. In addition, the inhibition at 0.0001 µM in assay [2] (0.0001 uM) came to 79%. For the same compound, in assay [2], the inhibition at 0.001 µM stood at 95%, the inhibition at 0.01 µM was 99%, the inhibition at 0.1 µM was 99% and the inhibition at 1 µM came out at 95%. In addition, the activation at 0.0001 µM in assay [3] (0.0001 uM) stood at 0%. Further, in assay [3], the activation at 0.001 µM was 1%, the activation at 0.01 µM stood at 3% and the activation at 0.1 µM was -1%.
As for `COc1ccccc1C1=NN(C(=N)N)CC1` [Example 1, 3-(2-Methoxyphenyl)-4,5-dihydro-1H-pyrazole-1-carboximidamide], in assay [2], the inhibition at 0.01 µM stood at 2%, the inhibition at 0.1 µM turned out to be 0%, the inhibition at 1 µM stood at 72% and the inhibition at 10 µM stood at 107%. Moreover, in assay [3], the activation at 0.01 µM was -1%, the activation at 0.1 µM is -8%, the activation at 1 µM is -5% and the activation at 10 µM is -1%.
As for `CC1CN(C(=N)N)N=C1c1cc(F)ccc1O` (centres unmarked) [Example 46, 3-(5-Fluoro-2-hydroxyphenyl)-4-methyl-4,5-dihydro-1H-pyrazole-1-carboximidamide], in assay [1], the inhibition at 0.01 µM came to 22%, the inhibition at 0.1 µM stood at 54% and the inhibition at 1 µM came out at 89%.
Turning to `COc1ccc(Cl)cc1C1=NN(C(=N)N)CC1C` (centres unmarked) [Example 51, 3-(5-Chloro-2-methoxyphenyl)-4-methyl-4,5-dihydro-1H-pyrazole-1-carboximidamide], in assay [1], the inhibition at 0.01 µM came to 7%, the inhibition at 0.1 µM was determined as 31% and the inhibition at 1 µM was determined as 76%.
Consider `COc1cc(F)ccc1C1=NN(C(=N)N)CC1C` (centres unmarked) [Example 49, 3-(4-Fluoro-2-methoxyphenyl)-4-methyl-4,5-dihydro-1H-pyrazole-1-carboximidamide], for which, in assay [1], the inhibition at 0.01 µM amounted to 11%, the inhibition at 0.1 µM amounted to 28% and the inhibition at 1 µM came out at 78%.
`COc1ccc(F)cc1C1=NN(C(=N)N)CC1C` (centres unmarked) [Example 45, 3-(5-Fluoro-2-methoxyphenyl)-4-methyl-4,5-dihydro-1H-pyrazole-1-carboximidamide]: in assay [1], the inhibition at 0.01 µM was found to be 26%, the inhibition at 0.1 µM worked out at 54% and the inhibition at 1 µM stood at 86%.
With `CNC(=N)N1CC(C)C(c2ccccc2O)=N1` (centres unmarked) [Example 40, 3-(2-Hydroxyphenyl)-N,4-dimethyl-4,5-dihydro-1H-pyrazole-1-carboximidamide], in assay [1], the inhibition at 0.001 µM worked out at 1%, the inhibition at 0.01 µM was 42%, the inhibition at 0.1 µM was found to be 92% and the inhibition at 1 µM turned out to be 99%.
With `CC1CN(C(=N)NCc2ccc(Cl)c(Cl)c2)N=C1c1ccccc1O` (centres unmarked) [Example 58, N-(3,4-Dichlorobenzyl)-3-(2-hydroxyphenyl)-4-methyl-4,5-dihydro-1H-pyrazole-1-carboximidamide], in assay [1], the inhibition at 0.001 µM is 2% and the inhibition at 0.01 µM stood at 52%.
As for `COc1ccccc1C1=NN(C(=N)Nc2ccccc2)CC1C` (centres unmarked) [Example 96, 3-(2-Methoxyphenyl)-4-methyl-N-phenyl-4,5-dihydro-1H-pyrazole-1-carboximidamide], in assay [1], the inhibition at 0.001 µM was found to be 19%, the inhibition at 0.01 µM came to 43% and the inhibition at 0.1 µM stood at 93%.
As for `CC1CN(C(=N)NCc2ccccc2)N=C1c1cccc(Cl)c1O` (centres unmarked) [Example 75, N-Benzyl-3-(3-chloro-2-hydroxyphenyl)-4-methyl-4,5-dihydro-1H-pyrazole-1-carboximidamide], in assay [1], the inhibition at 0.001 µM is 76% and the inhibition at 0.01 µM was 97%.
For `CCC1CC(c2ccccc2Cl)=NN1C(=N)N` (centres unmarked) [Example 27, 3-(2-Chlorophenyl)-5-ethyl-4,5-dihydro-1H-pyrazole-1-carboximidamide], in assay [1], the inhibition at 0.1 µM came out at 25% and the inhibition at 1 µM stood at 76%.
As for `CC1CN(C(=N)NCc2ccc(Cl)cc2Cl)N=C1c1ccccc1O` (centres unmarked) [Example 57, N-(2,4-Dichlorobenzyl)-3-(2-hydroxyphenyl)-4-methyl-4,5-dihydro-1H-pyrazole-1-carboximidamide], in assay [1], the inhibition at 0.001 µM was determined as 21% and the inhibition at 0.01 µM is 78%.
On to `CC1CN(C(=N)N)N=C1c1ccc(O)cc1O` (centres unmarked) [Example 67, 3-(2,4-Dihydroxyphenyl)-4-methyl-4,5-dihydro-1H-pyrazole-1-carboximidamide], for which, in assay [1], the inhibition at 0.01 µM was found to be 9%, the inhibition at 0.1 µM came out at 31% and the inhibition at 1 µM was determined as 72%.
Consider `COc1ccc(CNC(=N)N2CC(C)C(c3ccccc3O)=N2)cc1Cl` (centres unmarked) [Example 62, N-(3-chloro-4-methoxybenzyl)-3-(2-hydroxyphenyl)-4-methyl-4,5-dihydro-1H-pyrazole-1-carboximidamide], for which, in assay [1], the inhibition at 0.001 µM came out at 27% and the inhibition at 0.01 µM was 72%.
For `CNC(=N)N1CCC(c2ccccc2O)=N1` [Example 20, 3-(2-Hydroxyphenyl)-N-methyl-4,5-dihydro-1H-pyrazole-1-carboximidamide], in assay [1], the inhibition at 0.1 µM was 41% and the inhibition at 1 µM is 89%.
As for `CCCCNC(=N)N1CC(C)C(c2cccc(Cl)c2O)=N1` (centres unmarked) [Example 79, N-Butyl-3-(3-chloro-2-hydroxyphenyl)-4-methyl-4,5-dihydro-1H-pyrazole-1-carboximidamide], in assay [1], the inhibition at 0.001 µM was 79%, the inhibition at 0.01 µM came to 91% and the inhibition at 0.1 µM came out at 94%.
As for `CC1CC(c2c(F)cccc2F)=NN1C(=N)N` (centres unmarked) [Example 26, 3-(2,6-Difluorophenyl)-5-methyl-4,5-dihydro-1H-pyrazole-1-carboximidamide], in assay [1], the inhibition at 0.1 µM turned out to be 7% and the inhibition at 1 µM is 55%.
In the case of `CC1CN(C(=N)Nc2ccc(Cl)cc2)N=C1c1ccccc1O` (centres unmarked) [Example 103, N-(4-Chlorophenyl)-3-(2-hydroxyphenyl)-4-methyl-4,5-dihydro-1H-pyrazole-1-carboximidamide], in assay [1], the inhibition at 0.001 µM was 42%, the inhibition at 0.01 µM stood at 90% and the inhibition at 0.1 µM is 99%.

As usually defined, the inhibition is the change of the read-out against control, counted positive when it falls.

The values above are taken from patent US10544103B2, “5-HT2 antagonists” (ANAMAR AB, priority 2015, dated 2020).
